For test [1], the system named is non-small cell lung carcinoma. Conditions: randomized phase II trial; cited from earlier work.
The subject of test [2] is Akt phosphorylation at Ser 473. In words: Western blot analysis of Akt phosphorylation in SQ2OB cells. The test is classed as cell-based, human. The text has this: Using Western blot analysis, a human head-and-neck cancer cell line, SQ2OB, containing a constitutively-active EGFR receptor and thus, increased signaling through PI3K, was examined for Akt phosphorylation.
On the technique in general: Immunoblotting shows a protein as a band on a membrane.

A further test has as its system SQ20B. In words: Clonogenic assay, radiation sensitization, SQ20B cells. The test is classed as cell-based, human. Particulars: SQ2OB cells, 5 μM nelfinavir + 2 Gy radiation; control 70%. As for the experimental part: (§1) Cultures of cells in log growth phase were counted and plated in 60-mm dishes containing 4 ml of media. The cells were allowed to attach and nelfinavir was added to cultures at least one hour prior to irradiation. Cells were irradiated with a Mark I cesium irradiator (J. L. Shepherd, San Fernando, Calif.) at a dose rate of 1.6 Gy/min. Colonies were stained and counted 10-14 days after irradiation. A light box was used to assist in counting colonies. The surviving fraction was calculated by dividing the number of colonies formed by the number of cells plated times plating efficiency (Table 1). Each point value represents the mean surviving fraction from at least six replicate dishes.

For another test, the system named is T24. The test can be described thus: Clonogenic assay, radiation sensitization, T24 cells. In kind it is cell-based. Particulars: T24, 2 Gy, nelfinavir added at least one hour prior to irradiation; mean +/- spread. As for the experimental part: as §1
A further test concerns MIAPACA2. In words: Clonogenic assay, radiation sensitization, MIAPACA2 cells. The test is classed as cell-based. Conditions: MIAPACA2, 2 Gy, nelfinavir added at least one hour prior to irradiation; mean +/- spread. As for the experimental part: as §1
The subject of another test is A549. The test can be described thus: Clonogenic assay, radiation sensitization, A549 cells. In kind it is cell-based. Particulars: A549, 2 Gy, nelfinavir added at least one hour prior to irradiation; mean +/- spread. As for the experimental part:
as §1

The subject of a further test is REF. The test can be described thus: Clonogenic assay, radiation sensitization, REF cells. In kind it is cell-based. Conditions: 2 Gy, nelfinavir added at least one hour prior to irradiation, mean +/- spread. As for the experimental part:
as §1

For the next test, the system named is SQ2OB xenograft tumors. In words: In vivo to in vitro clonogenic assay in nude mice with SQ2OB tumors. As for the experimental part: In an in vivo experiment to examine the nelfinavir-mediated radiation sensitization of tumors, tumors in animals were radiation-sensitized using nelfinavir. FIG. 5 illustrates the results of an in vivo to in vitro clonogenic assay in nude mice with SQ2OB tumors. Mice were treated with 8 Gy radiation, with and without nelfinavir at 0.6 mg/day. […] FIG. 6 illustrates the results of in vivo to in vitro clonogenic assays used to examine in vivo sensitization of tumor cells to drugs. Nelfinavir was delivered to mice at 0.6 mg/day via osmotic pump. The mice had SQ2OB xenograft tumors on hind leg. The pump was placed in mouse 2 days prior to experiment. On the day of experiment, the mouse was anesthetized and irradiated to 8 Gy. The tumor was then harvested and a cell suspension made. The cells were plated and the plating efficiency determined. The result indicted the number of cells that were viable and able to reproduce by forming colonies in each individual group (plating efficiency).

For the next test, the system named is Akt phosphorylation. In words: Western blot of Akt phosphorylation in white blood cells of HIV patients. In kind it is in vivo, human. Particulars: HIV patients taking nelfinavir vs. HIV patients not actively using nelfinavir. From the text:
As a proof of principle, it was examined whether there was down-regulation of Akt in HIV patients who are being actively treated with HPIs. Blood samples were obtained from HIV patients on courses of various combinations of drugs. WBCs were isolated and stained for Akt using a Western Blot. Patients taking nelfinavir had decreased Akt phosphorylation compared to the levels of Akt phosphorylation detected in HIV patients who were not actively using nelfinavir (FIG. 7).

“Also recorded” adds a separate entry of the source.

As to `COc1cc2ncnc(Nc3ccc(F)c(Cl)c3)c2cc1OCCCN1CCOCC1` [Iressa, gefitinib], the radiographic response rate in test [1] is listed as roughly 10%.

As for `Cc1c(O)cccc1C(=O)N[C@@H](CSc1ccccc1)[C@H](O)CN1C[C@H]2CCCC[C@H]2C[C@H]1C(=O)NC(C)(C)C` [nelfinavir], the entries for the “Akt phosphorylation at Ser 473” value in test [2] (5 μM nelfinavir) and in test [2] (10 μM nelfinavir) were “down-regulation” and “abolished”, respectively. The “surviving fraction after 2 Gy (SF2)” value in the test with SQ20B was 40%. In addition, the “nelfinavir SF2” value in the test on T24 is 0.452 +/− 0.023; in the test on MIAPACA2, 0.526 +/− 0.040; in the test on A549 it was 0.410 +/− 0.062; in the test on REF it was 0.397 +/− 0.054. Further, the “plating efficiency of tumor cells derived from the mice” value in the test on SQ2OB xenograft tumors (nelfinavir 0.6 mg/day + 8 Gy radiation) is “synergistically decreased; also recorded: significant increase in cell kill”; with SQ2OB xenograft tumors (nelfinavir alone 0.6 mg/day, no radiation), “did not result in a change; also recorded: no toxicity”. Moreover, the “Akt phosphorylation in white blood cells” value with Akt phosphorylation is “decreased”.

(Values after patent US20080009517A1, “Use of nelfinavir as a radiation sensitizer” (The Trustees of the University of Pennsylvania, priority 2005, published 2008).)
